Entries after “also recorded” stand apart in the source; their conditions may differ. Peptide text beside a SMILES is read from it.
These molecules were tested against T1, BK2 -receptor (Rattus norvegicus, UniProt P25023) (assay: rat uterus (RU) in vitro, antagonism of BK). Conditions: against BK.
T1 construct: guinea-pig ileum (GPI), rat uterus (RU) and rabbit jugular vein (RJV); from tissue; host or cells: rat uterus
T1 sequence (P25023 1-396): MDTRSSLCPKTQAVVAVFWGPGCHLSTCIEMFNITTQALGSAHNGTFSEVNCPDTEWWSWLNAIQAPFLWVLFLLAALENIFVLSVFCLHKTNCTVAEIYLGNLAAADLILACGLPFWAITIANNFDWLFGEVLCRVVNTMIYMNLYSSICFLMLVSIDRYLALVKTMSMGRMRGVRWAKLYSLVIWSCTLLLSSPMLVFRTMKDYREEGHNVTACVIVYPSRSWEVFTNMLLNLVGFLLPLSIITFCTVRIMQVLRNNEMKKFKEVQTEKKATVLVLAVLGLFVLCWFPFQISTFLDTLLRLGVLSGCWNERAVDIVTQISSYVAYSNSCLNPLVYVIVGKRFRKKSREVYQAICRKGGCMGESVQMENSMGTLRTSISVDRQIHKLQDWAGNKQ
Method: Thus, in vitro studies were performed on standard assay systems, namely, guinea-pig ileum (GPI), rat uterus (RU) and rabbit jugular vein (RJV). […] The potency of each compound was assessed as a pA2 value according to the method of Arunlakshana & Schild, Br. J. Pharmacol. Chemother., 14:48-58 (1959). The pA2 can be defined as the negative logarithm of the molar concentration of the antagonist in the presence of which the potency of the agonist is reduced two-fold, i.e., twice the amount of agonist is required to produce a given response in the presence of, than in the absence of, the antagonist. A high potency of antagonism is indicated by a high pA2 value. i.e., a low concentration of antagonist is effective.
The percentage recovery (% Rec) was also determined for compounds with respect to each assay.
With respect to duration of activity, it is noted that after exposure to the highest concentration of antagonist, each tissue was washed extensively and then assessed for recovery from the antagonist effect.
Potency in the rat uterus assay was assessed as described above and pA2 values determined.

Structure (SMILES)	pA2 rat uterus (BK2)
CC(C)C[C@H](NC(=O)[C@@H]1CCCN1C(=O)[C@H](CO)NC(=O)[C@H](Cc1ccccc1)NC(=O)CNC(=O)[C@@H]1C[C@@H](O)CN1C(=O)[C@@H]1CCCN1C(=O)[C@H](CSC1CC(=O)N(CCCCCCN2C(=O)CC(SC[C@H](NC(=O)[C@H](Cc3ccccc3)NC(=O)CNC(=O)[C@@H]3C[C@@H](O)CN3C(=O)[C@@H]3CCCN3C(=O)[C@H](CCCNC(=N)N)NC(=O)[C@H](N)CCCNC(=N)N)C(=O)N[C@H](Cc3ccccc3)C(=O)N[C@@H](CC(C)C)C(=O)N[C@@H](CCCNC(=N)N)C(=O)O)C2=O)C1=O)NC(=O)[C@@H](N)CCCCN)C(=O)O (stereo partly shown) [CP-0382] (HELM PEPTIDE1{[dR].R.P.[Hyp].G.F.C.[dF].L.R}|PEPTIDE2{K.C.P.[Hyp].G.F.S.P.L}|CHEM1{[O=C1CC([*:1])C(=O)N1CCCCCCN1C(=O)CC([*:2])C1=O]}$PEPTIDE1,CHEM1,7:R3-1:R1|PEPTIDE2,CHEM1,2:R3-1:R2$$$V2.0; N-terminus and C-terminus assumed)	Agonist; also recorded: substantial partial agonism
CC(C)C[C@H](NC(=O)[C@@H](Cc1ccccc1)NC(=O)[C@H](CSC1CC(=O)N(CCCCCCN2C(=O)CC(SC[C@H](N)C(=O)N[C@@H](Cc3ccc(O)cc3)C(=O)N[C@H](Cc3c[nH]c4ccccc34)C(=O)N[C@H](C(=O)N[C@H](Cc3c[nH]c4ccccc34)C(=O)N[C@H](Cc3c[nH]c4ccccc34)C(=O)N[C@@H](CCCNC(=N)N)C(N)=O)C(C)C)C2=O)C1=O)NC(=O)[C@H](Cc1ccccc1)NC(=O)CNC(=O)[C@@H]1C[C@@H](O)CN1C(=O)[C@@H]1CCCN1C(=O)[C@H](CCCNC(=N)N)NC(=O)[C@H](N)CCCNC(=N)N)C(=O)N[C@@H](CCCNC(=N)N)C(=O)O (stereo partly shown) [CP-0411] (HELM PEPTIDE1{[dR].R.P.[Hyp].G.F.C.[dF].L.R}|PEPTIDE2{C.Y.[dW].V.[dW].[dW].R.[am]}|CHEM1{[O=C1CC([*:1])C(=O)N1CCCCCCN1C(=O)CC([*:2])C1=O]}$PEPTIDE1,CHEM1,7:R3-1:R1|PEPTIDE2,CHEM1,1:R3-1:R2$$$V2.0)	7.5 ± 0.1
CC(C)C[C@H](NC(=O)[C@@H](Cc1ccccc1)NC(=O)[C@H](CSC1CC(=O)N(CCCCCCN2C(=O)CC(SC[C@H](NC(=O)[C@@H](Cc3c[nH]c4ccccc34)NC(=O)[C@H](Cc3ccc(O)cc3)NC(=O)[C@@H](N)CC(=O)O)C(=O)N[C@H](Cc3c[nH]c4ccccc34)C(=O)N[C@H](Cc3c[nH]c4ccccc34)C(=O)N[C@@H](CCCNC(=N)N)C(N)=O)C2=O)C1=O)NC(=O)[C@H](Cc1ccccc1)NC(=O)CNC(=O)[C@@H]1C[C@@H](O)CN1C(=O)[C@@H]1CCCN1C(=O)[C@H](CCCNC(=N)N)NC(=O)[C@H](N)CCCNC(=N)N)C(=O)N[C@@H](CCCNC(=N)N)C(=O)O (stereo partly shown) [CP-0414] (HELM PEPTIDE1{[dR].R.P.[Hyp].G.F.C.[dF].L.R}|PEPTIDE2{D.Y.[dW].C.[dW].[dW].R.[am]}|CHEM1{[O=C1CC([*:1])C(=O)N1CCCCCCN1C(=O)CC([*:2])C1=O]}$PEPTIDE1,CHEM1,7:R3-1:R1|PEPTIDE2,CHEM1,4:R3-1:R2$$$V2.0)	7.8 ± 0.1
CC(C)C[C@H](NC(=O)[C@@H](Cc1ccccc1)NC(=O)[C@H](CSC1CC(=O)N(CCCCCCN2C(=O)CC(SC[C@H](NC(=O)[C@@H](NC(=O)[C@@H](Cc3c[nH]c4ccccc34)NC(=O)[C@H](Cc3ccc(O)cc3)NC(=O)[C@@H](N)CC(=O)O)C(C)C)C(=O)N[C@H](Cc3c[nH]c4ccccc34)C(=O)N[C@@H](CCCNC(=N)N)C(N)=O)C2=O)C1=O)NC(=O)[C@H](Cc1ccccc1)NC(=O)CNC(=O)[C@@H]1C[C@@H](O)CN1C(=O)[C@@H]1CCCN1C(=O)[C@H](CCCNC(=N)N)NC(=O)[C@H](N)CCCNC(=N)N)C(=O)N[C@@H](CCCNC(=N)N)C(=O)O (stereo partly shown) [CP-0415] (HELM PEPTIDE1{[dR].R.P.[Hyp].G.F.C.[dF].L.R}|PEPTIDE2{D.Y.[dW].V.C.[dW].R.[am]}|CHEM1{[O=C1CC([*:1])C(=O)N1CCCCCCN1C(=O)CC([*:2])C1=O]}$PEPTIDE1,CHEM1,7:R3-1:R1|PEPTIDE2,CHEM1,5:R3-1:R2$$$V2.0)	7.8 ± 0.1
CC(C)C[C@H](NC(=O)[C@@H](Cc1ccccc1)NC(=O)[C@H](CSC1CC(=O)N(CCCCCCN2C(=O)CC(SC[C@H](NC(=O)[C@@H](Cc3c[nH]c4ccccc34)NC(=O)[C@@H](NC(=O)[C@@H](Cc3c[nH]c4ccccc34)NC(=O)[C@H](Cc3ccc(O)cc3)NC(=O)[C@@H](N)CC(=O)O)C(C)C)C(=O)N[C@@H](CCCNC(=N)N)C(N)=O)C2=O)C1=O)NC(=O)[C@H](Cc1ccccc1)NC(=O)CNC(=O)[C@@H]1C[C@@H](O)CN1C(=O)[C@@H]1CCCN1C(=O)[C@H](CCCNC(=N)N)NC(=O)[C@H](N)CCCNC(=N)N)C(=O)N[C@@H](CCCNC(=N)N)C(=O)O (stereo partly shown) [CP-0416] (HELM PEPTIDE1{[dR].R.P.[Hyp].G.F.C.[dF].L.R}|PEPTIDE2{D.Y.[dW].V.[dW].C.R.[am]}|CHEM1{[O=C1CC([*:1])C(=O)N1CCCCCCN1C(=O)CC([*:2])C1=O]}$PEPTIDE1,CHEM1,7:R3-1:R1|PEPTIDE2,CHEM1,6:R3-1:R2$$$V2.0)	8.7 ± 0.2

Each molecule was assayed against T2, BK1 receptor (Oryctolagus cuniculus, UniProt P48748) (assay: rabbit aorta in vitro, reversal of des-Arg^9 -BK contraction). Conditions: negative log of molar concentration causing 50% reversal of des-Arg^9 -BK (10^-7 M) contraction.
T2 sequence (P48748 1-352): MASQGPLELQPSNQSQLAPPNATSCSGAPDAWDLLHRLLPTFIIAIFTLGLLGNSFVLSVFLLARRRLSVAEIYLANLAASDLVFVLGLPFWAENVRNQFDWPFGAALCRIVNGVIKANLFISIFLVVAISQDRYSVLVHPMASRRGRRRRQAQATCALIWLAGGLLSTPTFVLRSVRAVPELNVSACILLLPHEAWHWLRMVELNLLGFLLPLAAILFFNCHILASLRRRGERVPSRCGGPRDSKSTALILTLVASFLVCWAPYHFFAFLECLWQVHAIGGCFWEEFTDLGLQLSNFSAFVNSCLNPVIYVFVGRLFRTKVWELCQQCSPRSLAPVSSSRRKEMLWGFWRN
Parameters: on rabbit aorta (BK1 -receptor) in vitro; from tissue; host or cells: rabbit aorta
Method: Each antagonist was then added, in a cumulative fashion, on top of the contraction and the negative log of the molar concentration of the antagonist causing a 50% reversal (IC50) of the […] measured.

Structure (SMILES)	BK1 rabbit aorta IC50
CC(C)C[C@H](NC(=O)[C@@H](Cc1ccccc1)NC(=O)[C@H](CO)NC(=O)[C@H](Cc1ccccc1)NC(=O)CNC(=O)[C@@H]1C[C@@H](O)CN1C(=O)[C@@H]1CCCN1C(=O)[C@H](CCCNC(=N)N)NC(=O)[C@H](N)CCCNC(=N)N)C(=O)O [CP-0253, D R--R--P--J--G--F--S--D F--L] (HELM PEPTIDE1{[dR].R.P.[Hyp].G.F.S.[dF].L}$$$$V2.0; N-terminus and C-terminus assumed)	6.9 ± 0.1
CC(C)C[C@H](NC(=O)[C@@H](Cc1ccccc1)NC(=O)[C@H](CS)NC(=O)[C@H](Cc1ccccc1)NC(=O)CNC(=O)[C@@H]1C[C@@H](O)CN1C(=O)[C@@H]1CCCN1C(=O)[C@H](CCCNC(=N)N)NC(=O)[C@H](N)CCCNC(=N)N)C(=O)O [CP-0254, D R--R--P--J--G--F--C--D F--L] (HELM PEPTIDE1{[dR].R.P.[Hyp].G.F.C.[dF].L}$$$$V2.0; N-terminus and C-terminus assumed)	6.4 ± 0.1
N=C(N)NCCC[C@@H](N)C(=O)N[C@@H](CS)C(=O)N1CCC[C@H]1C(=O)N1C[C@H](O)C[C@H]1C(=O)NCC(=O)N[C@@H](Cc1ccccc1)C(=O)N[C@@H](CO)C(=O)N1Cc2ccccc2C[C@@H]1C(=O)N1[C@H](C(=O)O)C[C@@H]2CCCC[C@@H]21 [CP-0363, D R--C--P--J--G--F--S--D Tic--Oic] (HELM PEPTIDE1{[dR].C.P.[Hyp].G.F.S.[O=C([C@H]1Cc2ccccc2CN1[*:1])[*:2]].[O=C(O)[C@@H]1C[C@@H]2CCCC[C@@H]2N1[*:1]]}$$$$V2.0; N-terminus and C-terminus assumed)	6.2 ± 0.3
CC(C)C[C@H](NC(=O)[C@@H](Cc1ccccc1)NC(=O)[C@H](CO)NC(=O)[C@H](Cc1ccccc1)NC(=O)CNC(=O)[C@@H]1C[C@@H](O)CN1C(=O)[C@@H]1CCCN1C(=O)[C@H](CS)NC(=O)[C@H](N)CCCNC(=N)N)C(=O)O [CP-0376, D R--C--P--J--G--F--S--D F--L] (HELM PEPTIDE1{[dR].C.P.[Hyp].G.F.S.[dF].L}$$$$V2.0; N-terminus and C-terminus assumed)	4.9 ± 0.3
CC(C)C[C@H](NC(=O)[C@@H]1CCCN1C(=O)[C@H](CO)NC(=O)[C@H](Cc1ccccc1)NC(=O)CNC(=O)[C@@H]1C[C@@H](O)CN1C(=O)[C@@H]1CCCN1C(=O)[C@H](CCCCN)NC(=O)[C@H](N)CCCNC(=N)N)C(=O)O [CP-0388, D R--K--P--J--G--F--S--P--L] (HELM PEPTIDE1{[dR].K.P.[Hyp].G.F.S.P.L}$$$$V2.0; N-terminus and C-terminus assumed)	6.5 ± 0.1
